Laboratory results as given in patent publication US7018806B2, “Method for identifying endocrine disruptors and kit for carrying out the same” (priority 2001, dated 2006).

What was measured:
[1] = molecular target: T1, aromatase (Homo sapiens, UniProt P11511); assay: Aromatase activity in KGN cells by [3H]H2O release assay; type: cell-based; settings: for effect on aromatase activity in KGN cells: method of Example 3, FIGS. 5A–5B
T1 construct: endogenous in cells; host or cells: KGN human ovarian granulosa-like tumor cell line (RIKEN RCB 1154)
T1 sequence (P11511 1-503): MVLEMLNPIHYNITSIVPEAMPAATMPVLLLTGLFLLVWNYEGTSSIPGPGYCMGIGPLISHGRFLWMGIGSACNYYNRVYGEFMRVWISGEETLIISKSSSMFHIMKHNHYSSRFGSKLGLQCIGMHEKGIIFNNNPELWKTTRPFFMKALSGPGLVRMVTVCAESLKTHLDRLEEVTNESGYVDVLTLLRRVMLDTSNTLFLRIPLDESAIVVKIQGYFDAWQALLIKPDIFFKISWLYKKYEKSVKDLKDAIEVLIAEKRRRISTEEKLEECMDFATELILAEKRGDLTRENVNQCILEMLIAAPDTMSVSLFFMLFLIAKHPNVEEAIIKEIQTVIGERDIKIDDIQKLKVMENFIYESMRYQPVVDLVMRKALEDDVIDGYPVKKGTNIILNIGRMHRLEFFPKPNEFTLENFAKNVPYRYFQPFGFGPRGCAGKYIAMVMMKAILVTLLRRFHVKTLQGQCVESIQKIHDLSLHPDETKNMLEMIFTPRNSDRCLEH
Experimental: Assaying for inhibition or activation of aromatase activity may be carried out by measuring the amount of [^3H]H2O released upon conversion of [1β-^3H]androstenedione to estrone using a modification of the method of Ackerman et al, J. Clin. Endocrinol. Metab., 53:412–417 (1981), or as described in Example 3 below. Briefly, the cells are plated on a petri dish (Falcon 3001) in culture medium with 10% (v/v) fetal calf serum (FCS). At is confluence, the culture medium is replaced with DMEM/Ham's F-12 containing 5.0–10% (v/v) dextran-coated, charcoal-treated FCS (DCS) (Hyclone, Logan Utah), and incubated for another 12 h in the presence or absence of 10^−5–10^−2 M db-cAMP (Wako Pure Chemical Industries Ltd.) and the test compound. After treatment, the cells are further incubated with 12.5 nM [1β-^3H]androstenedione (NEN Life Science Products, Boston, Mass.; SA, 27.5 Ci/mmol) for 6–12 h. After incubation, the medium (2.0 ml) is transferred to tubes containing 1.0 ml ice-cold 30% (w/v) trichloroacetic acid (TCA), and then centrifuged to remove precipitated protein. The cells are harvested using 0.25% (w/v) trypsin-1.0 mM EDTA to determine the protein concentration. The protocol for the extraction of the medium to measure the amount of [^3H]H2O is performed as described by Tanaka et al, Calcif. Tissue Int., 52:107–109 (1993). Finally, the amount of radioactivity in the [^3H]H2O is corrected by subtracting the blank values from each sample. The cell protein content is determined using a micro bicinichoninic acid kit (Pierce Chemical Co., Rockford, Ill.) after the cells are dissolved in 1.0 N NaOH. The aromatase activity is expressed as picomoles per mg cell protein. As a control, the aromatase activities of human granulosa cells (obtained from in vitro fertilization programs), human fibroblast, and HOS cell (human osteoblast-like cell line) (Tanaka et al, supra) can be measured in the same manner.
More specifically, aromatase activity was determined by measuring [^3H] H2O release upon conversion of [1β-^3H]androstenedione (A) to estrone (E1), as described by Mu et al, Biochem. Biophys. Res. Commun., 271(3):710–713 (2000). [1β-^3H]androstenedione was purchased from Amersham Pharmacia Biotech (Boston, Mass.).
The medium (2.0 ml) was extracted with chloroform, and was then centrifuged. The aqueous supernatant was mixed with 5.0% (w/v) charcoal/0.5% (w/v) dextran, and incubated for 30 min. Thereafter, the mixture was centrifuged and the supernatant was added to 5.0 ml of scintillation fluid and assayed for radioactivity. The amount of radioactivity in [^3H]H2O thus measured was standardized based on the protein concentration, which was determined using a micro BCA kit (Pierece Chemical Co., Rockford, Ill.), and expressed as pmol/mg protein/6 h.

[2] = test system: marine neogastropods; settings: cited from earlier work
[3] = test system: P450arom promoter II; assay: Luciferase reporter assay of P450arom promoter II in transfected KGN cells; type: cell-based, human; settings: for luciferase activity of P450arom promoter II: 20 ng/ml, 48 h, basic state or stimulated by db-cAMP; for Ad4BP/SF-1-dependent increase of the luciferase activity: co-transfected with Ad4BP expression vector
Experimental: Thus, to determine whether or not the decreased expression of P450arom mRNA was regulated through promoter II, which is the major promoter in ovarian granulosa cells (Nishi et al, Endocrinol., 142:437–445 (2001); Means et al, Mol. Endocrinol., 5:2005–2013 (1991); and Carlone et al, Mol. Endocrinol., 11:292–304 (1997)), luciferase activity was determined using a 1 kb P450arom promoter II expression construct in the luciferase reporter vector, pGL3 (Mu et al, Mol. Cell. Endocrinol., 181:239–248 (2001)). pGL3 was obtained from Promega (Madison, Wis.). Transfection was performed using SuperFect reagents according to the manufacturer's instructions (Qiagen (Hilden, Germany)). More specifically, 1×10^5 cells were seeded in a 6-well plate 12 h prior to transfection, and transfected with 2.0 μg of DNA. Five nanograms of Renilla luciferase control reporter vector, pRL-CMV, obtained from Promega (Madison, Wis.), as an internal standard, were added per well to assess the transfection efficiency. […] The promoter activity determined is shown as a fold-increase in the luciferase activity normalized for Renilla luciferase activity (termed relative luciferase activity).

[4] = test system: KGN cells; assay: Effect on KGN cell growth (cell counting, trypan blue exclusion); type: cell-based, human; settings: for toxicity to KGN cells: more than 1000 ng/ml, within 24 h
Experimental: Further, both compounds were dissolved in ethanol, and the final concentration of ethanol in the cell growth medium was 0.1% (w/v).
More specifically, the cells were plated onto a 24-well plate at 1×10^4 cells/well in DMEM/F-12 supplemented with 10% (v/v) FCS. […] Cell viability was assessed by the trypan blue exclusion method.

[5] = test system: P450arom mRNA; settings: 20 ng/ml, 48 h
Experimental: RNA extraction and RT-PCR analysis for P450arom mRNA were performed as described by Ikuyama et al, Clin. Endrocrinol., 48(5):647–654 (1998). Taq DNA polymerase was obtained from Promega (Madison, Wis.) All of the primers for the PCR were synthesized by Amersham Pharmacia Biotech (Osaka, Japan). The PCR products were electrophoresed on 2.0% (w/v) agarose gel containing […] ethidium bromide.
The relative expression levels of P450arom vis-à-vis β-actin were determined by the measuring of the intensity of the ethidium bromide.

[6] = test system: Ad4BP; assay: Expression level of Ad4BP in KGN cells by RT-PCR; type: cell-based, human
[7] = test system: KGN cells; settings: 200 ng/ml
Experimental: More specifically, early and late apoptotic changes in the cells were determined using an Annexin V-EGFP/PI Apoptosis Detection Kit, as described by Mu et al, Endocrinol., 142:3590–3597 (2001). […] After the treatment, the cells were washed once with phosphate-buffered saline (PBS), and then incubated with 200 ml of 1× binding buffer comprising 1.0 ml annexin V-EGFP and 1.0 ml propidium iodide (PI) at room temperature for 5 min in the dark. The cells were then scanned using a confocal laser scanning microscopy (Leica TCS-SP system, Leica Microsystems, Heidelberg, Germany) using a dual filter set for FITC & TRITC. The cell membrane was imaged for green fluorescence (stained by annexin V-EGFP) by excitation with the 488 nm line from an argon laser, and the emission was viewed through a 460 to 505 nm band pass filter. The cell nucleus was imaged for red fluorescence (stained by PI) by excitation with the 560 nm line from an argon laser, and the emission was viewed through a 520 to 580 nm band pass filter.

[8] = test system: Thais clavigera; settings: rock shell; cited from earlier work
[9] = test system: E2 production in KGN cells; assay: Estradiol (E2) production in cultured KGN cells (RIA); type: cell-based, human; settings: 20 ng/ml, 7 days
Experimental: The media was collected and the E2 content in the media was determined by specific RIA (SRL, Inc. Tokyo, Japan).

[10] = same culture system (KGN cells)

Molecule: N#Cc1ccc(N(Cc2ccc(Br)cc2)n2cnnc2)cc1 [YM511]
- extent of suppression of aromatase activity [1, 10]: complete suppression
- time for suppression of aromatase activity [1, 10]: ≤ 5 min

Molecule: CC1=CC(=O)C=C2CC[C@@H]3[C@H](CC[C@]4(C)C(=O)CC[C@@H]34)[C@@]12C [SH489]
- imposex induction ([2]; compared with TBT-exposure): same imposex-inducing effect

Molecule: tributyltin [TBT]
- luciferase activity of P450arom promoter II [3]: decreased
- Ad4BP/SF-1-dependent increase of the luciferase activity [3]: significantly suppressed
- toxicity to KGN cells [4]: all of the cells died
- P450arom mRNA levels [5]: decrease
- expression level of Ad4BP [6]: unchanged
- apoptotic changes (annexin V positive/PI negative) ([7]; 48 h): early apoptotic cells
- apoptotic changes (annexin V positive/PI positive) ([7]; 72 h): late apoptotic cells

Molecule: triphenyltin [TPT]
- luciferase activity of P450arom promoter II [3]: decreased
- Ad4BP/SF-1-dependent increase of the luciferase activity [3]: significantly suppressed
- effect on the development of imposex [8]: strong effect
- effect on KGN cell proliferation ([4]; less than 50 ng/ml (2 or 20 ng/ml), 7 days): little effect
- toxicity to KGN cells [4]: all of the cells died
- expression level of Ad4BP [6]: unchanged
- aromatase activity, % of the baseline ([1]; 20 ng/ml, 72 h, basal (no db-cAMP)): about 30%
- effect on db-cAMP-induced increase in aromatase activity ([1]; 20 ng/ml, with 10^−4 M db-cAMP): suppressed
- E2 concentration in the medium [9]: significant decrease

Molecule: CCCCNC(=O)n1c(NC(=O)OC)nc2ccccc21 [Benomyl]
- effect on aromatase activity in KGN cells [1]: activate aromatase activity

Molecule: c1ccc2c(c1)c1cccc3ccc4cccc2c4c31 [Benzopyrene]
- effect on aromatase activity in KGN cells [1]: activate aromatase activity

Molecule: ClC1=C(Cl)C2(Cl)C3C(Cl)C=CC3C1(Cl)C2(Cl)Cl (stereo not shown) [Heptachlor]
- effect on aromatase activity in KGN cells [1]: activate aromatase activity

Molecule: CCCC(=O)Nc1ncnc2c1ncn2[C@@H]1O[C@@H]2COP(=O)(O)O[C@H]2[C@H]1OC(=O)CCC [db-cAMP, dibutyryl cyclic AMP]
- activation of the P450arom promoter II ([3]; 10^−4 M db-cAMP): 1.7 fold
- increase in aromatase activity over baseline ([1]; 10^−4 M db-cAMP): 1.7 fold

Molecule: CC(=O)O[C@]1(C(C)=O)CC[C@H]2[C@@H]3C=C(Cl)C4=CC(=O)[C@@H]5C[C@@H]5[C@]4(C)[C@H]3CC[C@@]21C [cyproterone acetate]
- effect on TBT-induced imposex ([2]; in vivo): completely suppressed
